Assay results as given in US20100297676A1, “METHODS FOR DIAGNOSIS, PROGNOSIS AND METHODS OF TREATMENT” (Nodality, Inc., priority 2009, published 2010).

Legend:
healthy B cells = conditions: B cells from healthy donors; anti-μ 10 μg/ml plus H2O2 […], 10 min
Experimental: Cryopreserved PBMCs, 23 from CLL patients and 7 from healthy donors, were rapidly thawed in a 37° C. water bath. 1 mL of pre-warmed thawing media (PBS 1% FBS, 2 mM EDTA) was added dropwise to each of the cryovials. Thawed cells were transferred to a tube containing 8 mL thawing media. Tubes were inverted and centrifuged at 200×g for 8 minutes at room temperature. Supernatant was decanted, cell pellets were resuspended in 1 mL RPMI 1640 1% FCS and filtered over 70 um nylon mesh (BD Falcon) to remove cell clumps and debris. 11 mL of additional RPMI 1640 1% FCS was added to the samples to wash. […]
Supernatant was aspirated and each sample was resuspended in 4 mL of PBS. […] The supernatant was decanted and all samples were resuspended at a density of 2.4×10^6 cells/mL, using a volume specific to the number of cells determined from the cell counting procedure. […]
“Daughter” plates designated for treatment with modulators for or apoptosis inducing agents were generated from the “mother” plate with the use of a Liquidator 96-well pipettor (Rainin) Plates designated for treatment with modulators for phospho-readouts received 250 uL (6.0×10^5 cells) of cell suspension per well, and plates designated for treatment with apoptosis inducing agents received 333 uL (8.0×10^5 cells) of cell suspension per well. […]
Antibody cocktails for signaling and apoptosis readouts were prepared in FACS Buffer. […]

CLL cells = conditions: in vitro treatment; Buchner 2009, Gobessi 2009; cited from earlier work

SMILES: OO [H2O2, hydrogen peroxide]
- effect of H2O2 on anti-μ-mediated BCR signaling (healthy B cells): further potentiated

SMILES: COc1cc(Nc2ncc(F)c(Nc3ccc4c(n3)NC(=O)C(C)(C)O4)n2)cc(OC)c1OC [R406]
- apoptotic response of CLL cells (CLL cells): mediated an apoptotic response
